This passage reports injury rate results from US8420888B2, “Chloroplast transit peptides for efficient targeting of DMO and uses thereof” (Monsanto Technology LLC, priority 2007, dated 2013).

For the assay, the system named is soybean plants. As to the kind of experiment: Pre- and post-emergence dicamba tolerance of transgenic soybean. It counts as in vivo. Particulars: wild type soybean; dicamba at post-V3 stage at 1 lb/a rate.

Molecules are shown by their SMILES.

From the text: Several DMO expression units were constructed by operably linking one of each various promoters, CTPs, DMO variants, and 3′UTRs to obtain efficient DMO expression units for product development.

On to `COc1c(Cl)ccc(Cl)c1C(=O)O` [dicamba, 3,6-dichloro-o-anisic acid], for which the injury rate stood at 60%.
